Reference: ChEMBL document CHEMBL3885881, “DrugMatrix”

Species: Rattus norvegicus
Assay: DrugMatrix - Regimen: Daily Repeat
Type: toxicity, organism-based, Sprague-Dawley
Set-up: regimen Daily Repeat, gender Male, age 6-8 weeks
Settings: in vivo, iv, vehicle 100 % SALINE; for ABSOLUTE BASOPHIL / ABSOLUTE EOSINOPHIL / ABSOLUTE LYMPHOCYTE / ABSOLUTE MONOCYTE / ABSOLUTE SEGMENTED NEUTROPHIL / BASOPHIL / EOSINOPHIL / ERYTHROCYTE COUNT / HEMATOCRIT / HEMOGLOBIN / LEUKOCYTE COUNT / LYMPHOCYTE / MEAN CORPUSCULAR HEMOGLOBIN / MEAN CORPUSCULAR HEMOGLOBIN CONCENTRATION / MEAN CORPUSCULAR VOLUME / MONOCYTE / NEUTROPHIL / NUCLEATED RED BLOOD CELLS / PLATELET COUNT: tissue Blood; for ALANINE AMINOTRANSFERASE / ALBUMIN / ALKALINE PHOSPHATASE / ASPARTATE AMINOTRANSFERASE / BLOOD UREA NITROGEN / CARBON DIOXIDE / CHLORIDE / CHOLESTEROL / CREATINE PHOSPHOKINASE / CREATININE / GLUCOSE / LACTATE DEHYDROGENASE / LIPASE / PHOSPHORUS / POTASSIUM / SODIUM / TOTAL BILIRUBIN / TOTAL PROTEIN / URIC ACID: tissue Plasma
[1] = 27 mg/kg, 72 h, dose level High, time 3 day
[2] = 27 mg/kg, 120 h, dose level High, time 5 day
[3] = […], 72 h, dose 2.7 mg/Kg, dose level Low, time 3 day
[4] = […], 120 h, dose 2.7 mg/Kg, dose level Low, time 5 day

COC(=O)CCc1ccc(OCC(O)CNC(C)C)cc1 (configuration not stated) [ESMOLOL]
ABSOLUTE BASOPHIL [1]: 0 CELLS/uL
ABSOLUTE EOSINOPHIL [1]: 31.33 CELLS/uL
ABSOLUTE LYMPHOCYTE [1]: 10926.67 CELLS/uL
ABSOLUTE MONOCYTE [1]: 68.67 CELLS/uL
ABSOLUTE SEGMENTED NEUTROPHIL [1]: 673.33 CELLS/uL
BASOPHIL [1]: 0%
EOSINOPHIL [1]: 0.33%
ERYTHROCYTE COUNT [1]: 5.92 x10E6/uL
HEMATOCRIT [1]: 37.53%
HEMOGLOBIN [1]: 14.47 G/DL
LEUKOCYTE COUNT [1]: 11.7 x10E3/uL
LYMPHOCYTE [1]: 92.67%
MEAN CORPUSCULAR HEMOGLOBIN [1]: 24.37 pg
MEAN CORPUSCULAR HEMOGLOBIN CONCENTRATION [1]: 38.63 G/DL
MEAN CORPUSCULAR VOLUME [1]: 63.03 fL
MONOCYTE [1]: 0.67%
NEUTROPHIL [1]: 6.33%
NUCLEATED RED BLOOD CELLS [1]: 0 /100WBC
PLATELET COUNT [1]: 1320 x10E3/uL
ALANINE AMINOTRANSFERASE [1]: 71.33 u/L
ALBUMIN [1]: 4.1 G/DL
ALKALINE PHOSPHATASE [1]: 456.33 u/L
ASPARTATE AMINOTRANSFERASE [1]: 161 u/L
BLOOD UREA NITROGEN [1]: 16.67 mg/dL
CARBON DIOXIDE [1]: 28.67 mmol/L
CHLORIDE [1]: 100.33 MEQ/L
CHOLESTEROL [1]: 75.67 mg/dL
CREATINE PHOSPHOKINASE [1]: 1751 u/L
CREATININE [1]: 0.23 mg/dL
GLUCOSE [1]: 225 mg/dL
LACTATE DEHYDROGENASE [1]: 862 u/L
LIPASE [1]: 12.33 u/L
PHOSPHORUS [1]: 14.17 mg/dL
POTASSIUM [1]: 8.56 MEQ/L
SODIUM [1]: 142.57 MEQ/L
TOTAL BILIRUBIN [1]: 0.4 mg/dL
TOTAL PROTEIN [1]: 5.8 G/DL
URIC ACID [1]: 4.13 mg/dL
ABSOLUTE BASOPHIL [2]: 0 CELLS/uL
ABSOLUTE EOSINOPHIL [2]: 0 CELLS/uL
ABSOLUTE LYMPHOCYTE [2]: 16580.67 CELLS/uL
ABSOLUTE MONOCYTE [2]: 300 CELLS/uL
ABSOLUTE SEGMENTED NEUTROPHIL [2]: 1652.67 CELLS/uL
BASOPHIL [2]: 0%
EOSINOPHIL [2]: 0%
ERYTHROCYTE COUNT [2]: 5.69 x10E6/uL
HEMATOCRIT [2]: 36.33%
HEMOGLOBIN [2]: 14.23 G/DL
LEUKOCYTE COUNT [2]: 18.53 x10E3/uL
LYMPHOCYTE [2]: 89.33%
MEAN CORPUSCULAR HEMOGLOBIN [2]: 25 pg
MEAN CORPUSCULAR HEMOGLOBIN CONCENTRATION [2]: 39.2 G/DL
MEAN CORPUSCULAR VOLUME [2]: 63.8 fL
MONOCYTE [2]: 1.67%
NEUTROPHIL [2]: 9%
NUCLEATED RED BLOOD CELLS [2]: 0 /100WBC
PLATELET COUNT [2]: 1133.67 x10E3/uL
ALANINE AMINOTRANSFERASE [2]: 63.33 u/L
ALBUMIN [2]: 4.27 G/DL
ALKALINE PHOSPHATASE [2]: 363.67 u/L
ASPARTATE AMINOTRANSFERASE [2]: 126 u/L
BLOOD UREA NITROGEN [2]: 15.33 mg/dL
CARBON DIOXIDE [2]: 27.33 mmol/L
CHLORIDE [2]: 99.67 MEQ/L
CHOLESTEROL [2]: 70.33 mg/dL
CREATINE PHOSPHOKINASE [2]: 284 u/L
CREATININE [2]: 0.22 mg/dL
GLUCOSE [2]: 147.33 mg/dL
LACTATE DEHYDROGENASE [2]: 238.67 u/L
LIPASE [2]: 9.33 u/L
PHOSPHORUS [2]: 11 mg/dL
POTASSIUM [2]: 6.94 MEQ/L
SODIUM [2]: 142.83 MEQ/L
TOTAL BILIRUBIN [2]: 0.17 mg/dL
TOTAL PROTEIN [2]: 6.3 G/DL
URIC ACID [2]: 1.47 mg/dL
ABSOLUTE BASOPHIL [3]: 0 CELLS/uL
ABSOLUTE EOSINOPHIL [3]: 0 CELLS/uL
ABSOLUTE LYMPHOCYTE [3]: 13243.33 CELLS/uL
ABSOLUTE MONOCYTE [3]: 97.67 CELLS/uL
ABSOLUTE SEGMENTED NEUTROPHIL [3]: 1325.67 CELLS/uL
BASOPHIL [3]: 0%
EOSINOPHIL [3]: 0%
ERYTHROCYTE COUNT [3]: 5.56 x10E6/uL
HEMATOCRIT [3]: 35.9%
HEMOGLOBIN [3]: 14.23 G/DL
LEUKOCYTE COUNT [3]: 14.67 x10E3/uL
LYMPHOCYTE [3]: 90.33%
MEAN CORPUSCULAR HEMOGLOBIN [3]: 25.77 pg
MEAN CORPUSCULAR HEMOGLOBIN CONCENTRATION [3]: 39.73 G/DL
MEAN CORPUSCULAR VOLUME [3]: 64.73 fL
MONOCYTE [3]: 0.67%
NEUTROPHIL [3]: 9%
NUCLEATED RED BLOOD CELLS [3]: 0 /100WBC
PLATELET COUNT [3]: 1093.67 x10E3/uL
ALANINE AMINOTRANSFERASE [3]: 50 u/L
ALBUMIN [3]: 4.43 G/DL
ALKALINE PHOSPHATASE [3]: 440 u/L
ASPARTATE AMINOTRANSFERASE [3]: 82 u/L
BLOOD UREA NITROGEN [3]: 17.33 mg/dL
CARBON DIOXIDE [3]: 28.67 mmol/L
CHLORIDE [3]: 100.33 MEQ/L
CHOLESTEROL [3]: 69.33 mg/dL
CREATINE PHOSPHOKINASE [3]: 423.67 u/L
CREATININE [3]: 0.22 mg/dL
GLUCOSE [3]: 193 mg/dL
LACTATE DEHYDROGENASE [3]: 155 u/L
LIPASE [3]: 9 u/L
PHOSPHORUS [3]: 12.67 mg/dL
POTASSIUM [3]: 7.24 MEQ/L
SODIUM [3]: 143.23 MEQ/L
TOTAL BILIRUBIN [3]: 0.23 mg/dL
TOTAL PROTEIN [3]: 5.97 G/DL
URIC ACID [3]: 2.6 mg/dL
ABSOLUTE BASOPHIL [4]: 0 CELLS/uL
ABSOLUTE EOSINOPHIL [4]: 0 CELLS/uL
ABSOLUTE LYMPHOCYTE [4]: 9825 CELLS/uL
ABSOLUTE MONOCYTE [4]: 143 CELLS/uL
ABSOLUTE SEGMENTED NEUTROPHIL [4]: 698.67 CELLS/uL
BASOPHIL [4]: 0%
EOSINOPHIL [4]: 0%
ERYTHROCYTE COUNT [4]: 6.36 x10E6/uL
HEMATOCRIT [4]: 40.2%
HEMOGLOBIN [4]: 15.63 G/DL
LEUKOCYTE COUNT [4]: 10.67 x10E3/uL
LYMPHOCYTE [4]: 92%
MEAN CORPUSCULAR HEMOGLOBIN [4]: 24.57 pg
MEAN CORPUSCULAR HEMOGLOBIN CONCENTRATION [4]: 38.87 G/DL
MEAN CORPUSCULAR VOLUME [4]: 63.2 fL
MONOCYTE [4]: 1.33%
NEUTROPHIL [4]: 6.67%
NUCLEATED RED BLOOD CELLS [4]: 0.33 /100WBC
PLATELET COUNT [4]: 1330 x10E3/uL
ALANINE AMINOTRANSFERASE [4]: 35.67 u/L
ALBUMIN [4]: 4.67 G/DL
ALKALINE PHOSPHATASE [4]: 337 u/L
ASPARTATE AMINOTRANSFERASE [4]: 68.67 u/L
BLOOD UREA NITROGEN [4]: 21.67 mg/dL
CARBON DIOXIDE [4]: 29.67 mmol/L
CHLORIDE [4]: 103 MEQ/L
CHOLESTEROL [4]: 101 mg/dL
CREATINE PHOSPHOKINASE [4]: 276 u/L
CREATININE [4]: 0.21 mg/dL
GLUCOSE [4]: 155 mg/dL
LACTATE DEHYDROGENASE [4]: 214.33 u/L
LIPASE [4]: 10 u/L
PHOSPHORUS [4]: 12.37 mg/dL
POTASSIUM [4]: 6.64 MEQ/L
SODIUM [4]: 148.6 MEQ/L
TOTAL BILIRUBIN [4]: 0.23 mg/dL
TOTAL PROTEIN [4]: 6.97 G/DL
URIC ACID [4]: 2 mg/dL
